From EP1090023B1 (GLAXO GROUP LIMITED, priority 1998, dated 1999) come the findings set out here.

What all share (format): cell-based
The target of experiment [1] is adenosine 2a (Homo sapiens, UniProt P29274). Briefly: Agonist activity against adenosine receptor subtypes, CHO cells with cAMP response element/SPAP reporter (basal cAMP). Conditions: ratio to EC50 of NECA; transfected CHO cells; effect on basal cAMP via SPAP. Here is the method: (§1) Compounds of the invention were tested for in vitro and in vivo biological activity in accordance with the following screens: • (1) Agonist activity against adenosine 2a, adenosine 1 and adenosine 3 receptor subtypes.
adenosine 2a, sequence (P29274 whole entry): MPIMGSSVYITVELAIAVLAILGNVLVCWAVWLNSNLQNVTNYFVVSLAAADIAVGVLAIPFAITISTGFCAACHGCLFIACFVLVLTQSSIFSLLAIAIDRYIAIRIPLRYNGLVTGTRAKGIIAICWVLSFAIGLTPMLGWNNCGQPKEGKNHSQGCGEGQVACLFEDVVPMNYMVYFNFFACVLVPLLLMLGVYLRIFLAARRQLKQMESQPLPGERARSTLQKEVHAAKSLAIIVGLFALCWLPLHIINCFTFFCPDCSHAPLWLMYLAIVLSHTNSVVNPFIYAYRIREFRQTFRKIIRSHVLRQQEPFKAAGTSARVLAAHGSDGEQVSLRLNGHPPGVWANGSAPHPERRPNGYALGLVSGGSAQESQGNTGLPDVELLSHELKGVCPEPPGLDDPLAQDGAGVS
(§2) Agonist selectivity of compounds against other human adenosine receptors was determined using Chinese hamster ovary (CHO) cells transfected with the gene for the relevant human adenosine receptor following a method based on that of Castanon and Spevak, 1994 . The CHO cells were also transfected with cyclic AMP response elements promoting the gene for secreted placental alkaline phosphatase (SPAP) (Wood, 1995). The effect of test compounds was determined by their effects on basal levels of cAMP (A2a) or on forskolin-enhanced cAMP (A1 and A3) as reflected by changes in levels of SPAP. EC50 values for compounds were then determined as a ratio to that of the non-selective agonist N-ethyl carboxamide adenosine (NECA).

The target of experiment [2] is T1, adenosine 1 (Homo sapiens, UniProt P30542).
T1 sequence (P30542 1-326): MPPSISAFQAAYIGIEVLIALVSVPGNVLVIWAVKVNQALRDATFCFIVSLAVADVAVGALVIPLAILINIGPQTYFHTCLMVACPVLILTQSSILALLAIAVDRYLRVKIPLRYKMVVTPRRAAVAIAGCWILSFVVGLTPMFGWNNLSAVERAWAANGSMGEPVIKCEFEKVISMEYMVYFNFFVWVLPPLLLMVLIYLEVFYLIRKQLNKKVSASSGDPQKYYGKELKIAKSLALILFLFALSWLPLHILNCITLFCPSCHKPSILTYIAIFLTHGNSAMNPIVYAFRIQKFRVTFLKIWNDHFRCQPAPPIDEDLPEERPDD
Briefly: Agonist activity against adenosine receptor subtypes, CHO cells with cAMP response element/SPAP reporter (forskolin-enhanced cAMP). Conditions: ratio to EC50 of NECA; transfected CHO cells; effect on forskolin-enhanced cAMP via SPAP. The protocol:
as §1, §2

The target in experiment [3] is T2, adenosine 3 (Homo sapiens, UniProt P0DMS8).
T2 sequence (P0DMS8 1-318): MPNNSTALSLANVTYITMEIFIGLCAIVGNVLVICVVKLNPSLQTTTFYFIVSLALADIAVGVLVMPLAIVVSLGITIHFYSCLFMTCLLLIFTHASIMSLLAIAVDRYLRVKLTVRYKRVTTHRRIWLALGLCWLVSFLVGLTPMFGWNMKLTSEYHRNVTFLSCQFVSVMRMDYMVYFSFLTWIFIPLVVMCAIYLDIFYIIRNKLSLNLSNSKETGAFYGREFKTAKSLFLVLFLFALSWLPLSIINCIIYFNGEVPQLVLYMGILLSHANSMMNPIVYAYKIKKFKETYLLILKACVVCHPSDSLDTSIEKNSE
The description is as above. The conditions noted are these: ratio to EC50 of NECA; transfected CHO cells; effect on forskolin-enhanced cAMP via SPAP. The protocol:
as §1, §2

Take `CCc1nc([C@H]2O[C@@H](n3cnc4c(NCC(c5ccccc5)c5ccccc5)nc(NCCN5CCCCC5)nc43)[C@H](O)[C@@H]2O)no1.O=CO` [Example 14, (2R,3R,4S,5R)-2-[6-(2,2-Diphenyl-ethylamino)-2-(2-piperidin-1-yl-ethylamino)-purin-9-yl]-5-(5-ethyl-[1,2,4]oxadiazol-3-yl)-tetrahydro-furan-3,4-diol formate]: in experiment [1], the “A2a (EC50 values as a ratio of that of NECA)” value is on record as 12.86. Also, the “A1 (EC50 values as a ratio of that of NECA)” value in experiment [2] was “>=4762”. In addition, the “A3 (EC50 values as a ratio of that of NECA)” value in experiment [3] is reported as >190.

As to `CCc1nc([C@H]2O[C@@H](n3cnc4c(NCC(c5ccccc5)c5ccccc5)nc(NCCN5CCOCC5)nc43)[C@H](O)[C@@H]2O)no1.O=CO` [Example 15, (2R,3R,4S,5R)-2-[6-(2,2-Diphenyl-ethylamino)-2-(2-morpholin-4-yl-ethylamino)-purin-9-yl]-5-(5-ethyl-[1,2,4]oxadiazol-3-yl)-tetrahydro-furan-3,4-diol formate], the “A2a (EC50 values as a ratio of that of NECA)” value in experiment [1] is 13.62. For the same compound, the “A1 (EC50 values as a ratio of that of NECA)” value in experiment [2] is recorded as “>=8649”. For the same compound, in experiment [3], the “A3 (EC50 values as a ratio of that of NECA)” value is reported as >190.

As for `CCc1nc([C@H]2O[C@@H](n3cnc4c(NCC(c5ccccc5)c5ccccc5)nc(N[C@H](CO)Cc5ccccc5)nc43)[C@H](O)[C@@H]2O)no1.O=CO` [Example 16, (2R,3R,4S,5R)-2-[6-(2,2-Diphenyl-ethylamino)-2-(1S-hydroxymethyl-2-phenyl-ethylamino)-purin-9-yl]-5-(5-ethyl-[1,2,4]oxadiazol-3-yl)-tetrahydro-furan-3,4-diol formate], the “A2a (EC50 values as a ratio of that of NECA)” value in experiment [1] is on record as 5.75. In addition, the “A1 (EC50 values as a ratio of that of NECA)” value in experiment [2] turned out to be 4514.96. Besides, the “A3 (EC50 values as a ratio of that of NECA)” value in experiment [3] was >257.

`Cc1cnc([C@H]2O[C@@H](n3cnc4c(NCCC5CCCCC5)nc(N[C@H](CO)Cc5ccccc5)nc43)[C@H](O)[C@@H]2O)o1.O=CO` [Example 17, (2R,3R,4S,5S)-2-[6-(2-Cyclohexyl-ethylamino)-2-(1S-hydroxymethyl-2-phenyl-ethylamino)-purin-9-yl]-5-(5-methyl-oxazol-2-yl)-tetrahydro-furan-3,4-diol formate]: the “A2a (EC50 values as a ratio of that of NECA)” value in experiment [1] was 5.45. In experiment [2], the “A1 (EC50 values as a ratio of that of NECA)” value was 538. For the same compound, the “A3 (EC50 values as a ratio of that of NECA)” value in experiment [3] is on record as >518.

On to `Cc1cnc([C@H]2O[C@@H](n3cnc4c(NCC(c5ccccc5)c5ccccc5)nc(N[C@@H]5CCNC5)nc43)[C@H](O)[C@@H]2O)o1.O=CO.O=CO` [Example 18, (2R,3R,4S,5S)-2-[6-(2,2-Diphenyl-ethlyamino)-2-(pyrrolidin-3R-ylamino)-purin-9-yl]-5-(5-methyl-oxazol-2-yl)-tetrahydro-furan-3,4-diol diformate], for which the “A2a (EC50 values as a ratio of that of NECA)” value in experiment [1] is listed as 18.9. The “A1 (EC50 values as a ratio of that of NECA)” value in experiment [2] is 5515. Besides, in experiment [3], the “A3 (EC50 values as a ratio of that of NECA)” value is >223.

As for `Cc1nnc([C@H]2O[C@@H](n3cnc4c(NCC(c5ccccc5)c5ccccc5)nc(NCCc5cn(C)cn5)nc43)[C@H](O)[C@@H]2O)s1.O=CO.O=CO` [Example 19, (2R,3R,4S,5S)-2-{6-(2,2-Diphenyl-ethylamino)-2-[2-(1-methyl-1H-imidazol-4-yl)-ethylamino]-purin-9-yl}-5-(5-methyl-[1,3,4]thiadiazol-2-yl)-tetrahydro-furan-3,4-diol diformate], the “A2a (EC50 values as a ratio of that of NECA)” value in experiment [1] amounted to 4.05. Moreover, in experiment [2], the “A1 (EC50 values as a ratio of that of NECA)” value amounted to 3172. The “A3 (EC50 values as a ratio of that of NECA)” value in experiment [3] is given as >293.

For `Cc1nnc([C@H]2O[C@@H](n3cnc4c(NCC(c5ccccc5)c5ccccc5)nc(N[C@H](CO)Cc5ccccc5)nc43)[C@H](O)[C@@H]2O)s1.O=CO` [Example 20, (2R,3R,4S,5S)-2-[6-(2,2-Diphenyl-ethylamino)-2-(1S-hydroxymethyl-2-phenyl-ethylamino)-purin-9-yl]-5-(5-methyl-[1,3,4]thiadiazol-2-yl)-tetrahydro-furan-3,4-diol formate], the “A2a (EC50 values as a ratio of that of NECA)” value in experiment [1] was determined as 17.7. In addition, the “A1 (EC50 values as a ratio of that of NECA)” value in experiment [2] stood at 2625. The “A3 (EC50 values as a ratio of that of NECA)” value in experiment [3] is given as >470.

`CCc1nnc([C@H]2O[C@@H](n3cnc4c(NCC(c5ccccc5)c5ccccc5)nc(N[C@H](CO)Cc5ccccc5)nc43)[C@H](O)[C@@H]2O)o1.O=CO` [Example 21, (2R,3R,4S,5S)-2-[6-(2,2-Diphenyl-ethylamino)-2-(1S-hydroxymethyl-2-phenyl-ethylamino)-purin-9-yl]-5-(5-ethyl-[1,3,4]oxadiazol-2-yl)-tetrahydro-furan-3,4-diol formate]: the “A2a (EC50 values as a ratio of that of NECA)” value in experiment [1] was determined as 3.04. Also, the “A1 (EC50 values as a ratio of that of NECA)” value in experiment [2] was 568.06. Also, the “A3 (EC50 values as a ratio of that of NECA)” value in experiment [3] was >173.

As to `CCc1nnc([C@H]2O[C@@H](n3cnc4c(NCC(c5ccccc5)c5ccccc5)nc(NCCN5CCCCC5)nc43)[C@H](O)[C@@H]2O)o1.O=CO` [Example 22, (2R,3R,4S,5S)-2-[6-(2,2-Diphenyl-ethylamino)-2-(2-piperidin-1-yl-ethylamino)-purin-9-yl]-5-(5-ethyl-[1,3,4]oxadiazol-2-yl)-tetrahydro-furan-3,4-diol formate], in experiment [1], the “A2a (EC50 values as a ratio of that of NECA)” value came out at 12.28. Also, in experiment [2], the “A1 (EC50 values as a ratio of that of NECA)” value was 101.96. Besides, the “A3 (EC50 values as a ratio of that of NECA)” value in experiment [3] is >180.

Consider `CCc1nnc([C@H]2O[C@@H](n3cnc4c(NCC(c5ccccc5)c5ccccc5)nc(NCCN5CCOCC5)nc43)[C@H](O)[C@@H]2O)o1.O=CO` [Example 23, (2R,3R,4S,5S)-2-[6-(2,2-Diphenyl-ethylamino)-2-(2-morpholin-4-yl-ethylamino)-purin-9-yl]-5-(5-ethyl-[1,3,4]oxadiazol-2-yl)-tetrahydro-furan-3,4-diol formate], for which the “A2a (EC50 values as a ratio of that of NECA)” value in experiment [1] is listed as 6.16. Besides, the “A1 (EC50 values as a ratio of that of NECA)” value in experiment [2] turned out to be 101.96. For the same compound, the “A3 (EC50 values as a ratio of that of NECA)” value in experiment [3] is >180.

Consider `CCc1nnc([C@H]2O[C@@H](n3cnc4c(NCC(c5ccccc5)c5ccccc5)nc(NCCc5ccccn5)nc43)[C@H](O)[C@@H]2O)o1.O=CO` [Example 24, (2R,3R,4S,5S)-2-[6-(2,2-Diphenyl-ethylamino)-2-(2-pyridin-2-yl-ethylamino)-purin-9-yl]-5-(5-ethyl-[1,3,4]oxadiazol-2-yl)-tetrahydro-furan-3,4-diol formate], for which, in experiment [1], the “A2a (EC50 values as a ratio of that of NECA)” value amounted to 6.04. Besides, the “A1 (EC50 values as a ratio of that of NECA)” value in experiment [2] is reported as 390.97. The “A3 (EC50 values as a ratio of that of NECA)” value in experiment [3] was >175.

For the compound `CCc1nnc([C@H]2O[C@@H](n3cnc4c(NCC(c5ccccc5)c5ccccc5)nc(N[C@H]5CC[C@H](N)CC5)nc43)[C@H](O)[C@@H]2O)o1.O=CO` [Example 25, (2R,3R,4S,5S)-2-[2-(trans-4-Amino-cyclohexylamino)-6-(2,2-diphenyl-ethylamino)-purin-9-yl]-5-(5-ethyl-[1,3,4]oxadiazol-2-yl)-tetrahydro-furan-3,4-diol formate], the “A2a (EC50 values as a ratio of that of NECA)” value in experiment [1] stood at 4.81. In addition, the “A1 (EC50 values as a ratio of that of NECA)” value in experiment [2] worked out at 398.28. In addition, in experiment [3], the “A3 (EC50 values as a ratio of that of NECA)” value was >136.

With `CCc1nnc([C@H]2O[C@@H](n3cnc4c(NCC(c5ccccc5)c5ccccc5)nc(N[C@@H]5CCNC5)nc43)[C@H](O)[C@@H]2O)o1.O=CO` [Example 26, (2R,3R,4S,5S)-2-[6-(2,2-Diphenyl-ethylamino)-2-(pyrrolidin-3R-ylamino)-purin-9-yl]-5-(5-ethyl-[1,3,4]oxadiazol-2-yl)-tetrahydro-furan-3,4-diol formate], in experiment [1], the “A2a (EC50 values as a ratio of that of NECA)” value came out at 5.57. Further, the “A1 (EC50 values as a ratio of that of NECA)” value in experiment [2] was determined as 432. The “A3 (EC50 values as a ratio of that of NECA)” value in experiment [3] is listed as >162.

Consider `CCc1nnc([C@H]2O[C@@H](n3cnc4c(NCC(c5ccccc5)c5ccccc5)nc(NCCc5ccccn5)nc43)[C@H](O)[C@@H]2O)[nH]1.O=CO` [Example 27, (2R,3R,4S,5R)-2-[6-(2,2-Diphenyl-ethylamino)-2-(2-pyridin-2-yl-ethylamino)-purin-9-yl]-5-(5-ethyl-4H-[1,2,4]triazol-3-yl)-tetrahydro-furan-3,4-diol formate], for which the “A2a (EC50 values as a ratio of that of NECA)” value in experiment [1] is listed as 21.8. For the same compound, in experiment [2], the “A1 (EC50 values as a ratio of that of NECA)” value is given as 135.9. Further, in experiment [3], the “A3 (EC50 values as a ratio of that of NECA)” value was >183.
